Assay results reported in ChEMBL document CHEMBL1126421, “Total synthesis of myo-inositol-1-phosphate-4,5-pyrophosphate, a novel second messenger analogue, via myo-inositol-1-phosphate-4,5-bisphosphorothioate” (Bioorg Med Chem Lett, 1992).

Target: T1, Inositol polyphosphate-5-phosphatase A (Homo sapiens, UniProt Q14642)
T1 sequence (Q14642 whole entry): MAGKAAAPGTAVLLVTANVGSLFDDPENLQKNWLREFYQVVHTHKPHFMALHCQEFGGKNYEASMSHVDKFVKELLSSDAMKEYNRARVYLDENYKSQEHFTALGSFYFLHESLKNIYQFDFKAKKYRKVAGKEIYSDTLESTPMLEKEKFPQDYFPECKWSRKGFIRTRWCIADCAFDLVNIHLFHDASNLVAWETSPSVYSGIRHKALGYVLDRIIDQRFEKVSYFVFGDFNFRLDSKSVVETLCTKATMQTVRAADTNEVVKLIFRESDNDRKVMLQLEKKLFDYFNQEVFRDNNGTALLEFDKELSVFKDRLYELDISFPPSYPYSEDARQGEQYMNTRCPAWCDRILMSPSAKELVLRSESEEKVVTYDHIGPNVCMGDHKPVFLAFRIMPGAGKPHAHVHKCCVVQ
Assay: The compound was evaluated for inhibition of Inositol-1,4,5-trisphosphate 5-phosphatase

Question: How did the Ki turn out when `O=P(O)(O)OC1C(O)C(O)C(OP(O)(O)=S)C(OP(O)(O)=S)C1O` (stereo unspecified) was run?
Answer: 1300 nM
